Data on 16 compounds can be found in ChEMBL document CHEMBL1148761, “2-aroylindoles and 2-aroylbenzofurans with N-hydroxyacrylamide substructures as a novel series of rationally designed histone deacetylase inhibitors” (J Med Chem, 2007).

Calls of active or inactive are those of the source. The rule behind the calls is not given here.

Assay [1] deals with Histone deacetylase 1 (Homo sapiens, UniProt Q13547).
Description: Inhibition of recombinant HDAC1 in HeLa cells
Assay [2] has as its system HeLa. As to the kind of experiment: Cytotoxicity against HeLa cells. The assay is classed as functional, cell-based. The conditions noted are these: Homo sapiens.
Assay [3] has as its target Histone deacetylase. As to the kind of experiment: Inhibition of HDAC in HeLa cells. The format is cell-based, Homo sapiens.
The target in assay [4] is Histone deacetylase. As to the kind of experiment: Inhibition of HDAC in HeLa cells assessed as induction of human histone H3 hyperacetylation. The format is cell-based.
A short description of assay [5]: Cytotoxicity against human Hec-1-A cells. The assay is classed as functional, cell-based.
The test system of assay [6] is A549. Put plainly: Induction of apoptosis in A549 cells at 10 uM. Conditions: Homo sapiens. The format is functional, cell-based.
Assay [7] concerns MCF7. Put plainly: Cytotoxicity against human MCF7 cells. The assay is classed as functional, cell-based.
Assay [8] concerns the target Histone deacetylase 8 (Homo sapiens, UniProt Q9BY41). Put plainly: Inhibition of recombinant HDAC8.
Assay [9] relates to K562. As to the kind of experiment: Cytotoxicity against human K562 cells. The format is functional, cell-based.
Assay [10] has as its system SK-BR-3. Put plainly: Cytotoxicity against human SKBR3 cells. The format is functional, cell-based.
The test system of assay [11] is NCI. Put plainly: Cytotoxicity against human NCI H69 cells. The assay is classed as functional, cell-based.
Assay [12] concerns NCI-H460. Put plainly: Cytotoxicity against human NCI H460 cells. The format is functional, cell-based.
Assay [13] relates to MDA-MB-468. As to the kind of experiment: Cytotoxicity against human MDA-MB-468 cells. The assay is classed as functional, cell-based.
Assay [14] relates to CCRF-CEM. As to the kind of experiment: Cytotoxicity against vincristine resistant human CCRF-CEM cells. The assay is classed as functional, cell-based.
Assay [15] relates to A549. Put plainly: Cytotoxicity against human A549 cells. The assay is classed as functional, cell-based.
The test system of assay [16] is CAL-27. Put plainly: Cytotoxicity against human Cal27 cells. The format is functional, cell-based.
The nature of assay [17]: Cytotoxicity against human proliferating RKOp21 cells. The assay is classed as functional, cell-based.
The test system of assay [18] is ASPC1. As to the kind of experiment: Cytotoxicity against human AsPC1 cells. The assay is classed as functional, cell-based.
The nature of assay [19]: cells. The format is functional, cell-based. The conditions noted are these: Homo sapiens, WM 266-4.
Description: Cytotoxicity against human WM 266-4 cells
Assay [20] has as its system 549. Put plainly: Inhibition of histone-H3S phosphorylation in […] cells at 10 uM. The assay is classed as cell-based.
The subject of assay [21] is HCT-15. Put plainly: Cytotoxicity against human HCT15 cells. The assay is classed as functional, cell-based.
Assay [22] deals with CCRF-CEM. Put plainly: Cytotoxicity against human CCRF-CEM cells. The assay is classed as functional, cell-based.
Assay [23] relates to HCT-116. Put plainly: Cytotoxicity against human HCT116 cells. The assay is classed as functional, cell-based.
Assay [24] deals with A-431. Put plainly: Cytotoxicity against human A431 cells. The format is functional, cell-based.
The test system of assay [25] is SAOS-2. As to the kind of experiment: Cytotoxicity against human Saos2 cells. The format is functional, cell-based.
The nature of assay [26]: Cytotoxicity against human non-proliferating RKOp21 cells. The assay is classed as functional, cell-based.
Assay [27] deals with RKO. As to the kind of experiment: Induction of human histone H3 hyperacetylation in RKO cells at 1 to 3 uM. The assay is classed as functional, cell-based.
Assay [28] relates to PC-3. As to the kind of experiment: Cytotoxicity against human PC3 cells. The format is functional, cell-based.
In assay [29] the test system is SK-OV-3. As to the kind of experiment: Cytotoxicity against human SK-OV-3 cells. The assay is classed as functional, cell-based.
The test system of assay [30] is RKO. Put plainly: Inhibition of histone-H3S phosphorylation in human RKO cells at 10 uM. The assay is classed as cell-based.
The subject of assay [31] is A549. Put plainly: Induction of human histone H3 hyperacetylation in A549 cells at 1 to 3 uM. The assay is classed as functional, cell-based.
Assay [32] concerns the target Histone deacetylase 3 (Homo sapiens, UniProt O15379). Put plainly: Inhibition of recombinant HDAC3.
For assay [33], the system named is A2780. As to the kind of experiment: Cytotoxicity against human A2780 cells. The assay is classed as functional, cell-based.
Assay [34] in a line: Cytotoxicity against human U87MG cells. The assay is classed as functional, cell-based, U-87MG ATCC. The conditions noted are these: U-87 MG.
Assay [35] deals with EOL1. As to the kind of experiment: Cytotoxicity against human EOL1cells. The format is functional, cell-based.
Assay [36] deals with MDA-MB-231. Put plainly: Cytotoxicity against human MDA-MB-231cells. The assay is classed as functional, cell-based.

Histone deacetylase 1, sequence (Q13547 whole entry): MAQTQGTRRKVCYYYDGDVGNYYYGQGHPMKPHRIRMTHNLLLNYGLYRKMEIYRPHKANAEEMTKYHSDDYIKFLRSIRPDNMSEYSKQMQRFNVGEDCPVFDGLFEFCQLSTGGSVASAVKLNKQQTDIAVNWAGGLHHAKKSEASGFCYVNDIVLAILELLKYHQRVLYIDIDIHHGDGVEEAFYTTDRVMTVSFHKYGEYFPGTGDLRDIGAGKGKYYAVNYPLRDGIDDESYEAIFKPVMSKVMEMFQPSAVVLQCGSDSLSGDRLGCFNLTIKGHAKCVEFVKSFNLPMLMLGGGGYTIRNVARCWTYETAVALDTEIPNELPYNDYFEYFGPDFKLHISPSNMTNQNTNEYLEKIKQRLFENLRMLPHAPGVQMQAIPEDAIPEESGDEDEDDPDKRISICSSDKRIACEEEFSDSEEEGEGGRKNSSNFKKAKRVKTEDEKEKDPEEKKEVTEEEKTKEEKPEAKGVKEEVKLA
Histone deacetylase 8, sequence (Q9BY41 whole entry): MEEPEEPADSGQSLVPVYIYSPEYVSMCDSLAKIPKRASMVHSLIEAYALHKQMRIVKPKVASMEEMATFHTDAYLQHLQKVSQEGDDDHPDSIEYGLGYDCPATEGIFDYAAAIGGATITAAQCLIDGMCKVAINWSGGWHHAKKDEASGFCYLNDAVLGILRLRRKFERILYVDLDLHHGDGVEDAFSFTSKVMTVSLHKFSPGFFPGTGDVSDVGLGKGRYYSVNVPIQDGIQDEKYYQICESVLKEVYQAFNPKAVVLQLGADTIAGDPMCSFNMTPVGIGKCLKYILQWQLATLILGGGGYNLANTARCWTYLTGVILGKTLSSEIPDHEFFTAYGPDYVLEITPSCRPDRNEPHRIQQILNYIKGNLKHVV
Histone deacetylase 3, sequence (O15379 whole entry): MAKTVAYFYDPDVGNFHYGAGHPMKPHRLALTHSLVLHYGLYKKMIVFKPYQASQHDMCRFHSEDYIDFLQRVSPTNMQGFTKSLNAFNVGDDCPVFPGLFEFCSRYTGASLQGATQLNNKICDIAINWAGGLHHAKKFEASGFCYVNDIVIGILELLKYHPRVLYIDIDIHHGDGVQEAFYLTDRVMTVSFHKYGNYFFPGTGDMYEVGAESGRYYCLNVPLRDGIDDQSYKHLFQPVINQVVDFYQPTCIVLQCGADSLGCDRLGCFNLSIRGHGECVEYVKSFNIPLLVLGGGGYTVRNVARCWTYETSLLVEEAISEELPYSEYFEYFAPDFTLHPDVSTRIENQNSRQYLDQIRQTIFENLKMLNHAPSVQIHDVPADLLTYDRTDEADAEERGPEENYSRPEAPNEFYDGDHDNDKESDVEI

Turning to `COc1cc(C(=O)c2cc3cc(/C=C/C(=O)NO)ccc3o2)cc(OC)c1OC`, the IC50 – broadly, the concentration that gives 50% inhibition – came out at 1100 nM in assay [1], 5770 nM in [2] and 1000 nM in assay [3]. Besides, the EC50 (usually the concentration at which the effect is half-maximal) in assay [4] is 7500 nM.

Consider `COc1ccc2[nH]c(C(=O)c3ccc(/C=C/C(=O)NO)cc3)cc2c1`, for which the IC50 in assay [1] was found to be 320 nM; in assay [2] it was 3440 nM; in assay [3], 280 nM. For the same compound, the EC50 in [4] came out at 4270 nM.

In the case of `O=C(/C=C/c1ccc2oc(C(=O)c3ccccc3)cc2c1)NO`, the IC50 in assay [1] is 1200 nM; in assay [2], 5610 nM; in assay [3], 830 nM. Besides, the EC50 in assay [4] was 2650 nM.

Turning to `COc1cccc(C(=O)c2cc3cc(/C=C/C(=O)NO)ccc3[nH]2)c1`, the half-maximal inhibitory concentration (IC50) in assay [1] stood at 300 nM; in assay [2], 2960 nM; in [3], 330 nM. Further, in assay [4], the EC50 is 2570 nM.

`O=C(/C=C/c1cccc(C(=O)c2cc3ccccc3n2S(=O)(=O)c2ccccc2)c1)NO`: the figures for the IC50 in assay [1], in assay [2] and in [3] were 89 nM, 1730 nM and 34 nM, respectively. In addition, the EC50 in assay [4] amounted to 1000 nM.

As for `COc1cccc(C(=O)c2cc3cc(/C=C/C(=O)NO)ccc3o2)c1`, the values for the IC50 in assay [1], in assay [2] and in [3] were 950 nM, 4110 nM and 650 nM, respectively. For the same compound, the EC50 in assay [4] came out at 4100 nM.

With `COc1ccc2c(c1)cc(C(=O)c1ccc(/C=C/C(=O)NO)cc1)n2S(=O)(=O)c1ccccc1`, the IC50 in assay [1] is 880 nM; in assay [2] it was 5420 nM; in [3] it was 260 nM. For the same compound, the EC50 in assay [4] is 6900 nM.

`O=C(/C=C/c1ccc2c(c1)cc(C(=O)c1ccccc1)n2S(=O)(=O)c1ccccc1)NO`: the IC50 in [1] is 200 nM; in assay [2] it was 2880 nM; in assay [3], 90 nM. In addition, the EC50 in assay [4] worked out at 2670 nM.

Regarding `O=C(/C=C/c1cccc(C(=O)c2cc3ccccc3o2)c1)NO`, the IC50 in [5] came out at 470 nM; in assay [1], 52 nM; in assay [7], 1300 nM; in [8], 79 nM; in assay [9], 150 nM; in assay [10], 310 nM. Besides, the half-maximal inhibitory concentration (IC50) in assay [11] was 190 nM; in assay [12] it was 250 nM; in assay [2], 680 nM; in [13] it was 500 nM; in [14], 240 nM; in assay [15], 770 nM. Moreover, the IC50 is 660 nM in assay [16]; 960 nM in [17]; 57 nM in assay [3]; 3500 nM in assay [18]; 310 nM in assay [19]; 740 nM in [21]. Moreover, the IC50 in [22] came to 180 nM; in assay [23], 360 nM; in assay [24], 590 nM; in [25], 920 nM; in [26], 3690 nM; in assay [28], 160 nM. For the same compound, the IC50 in assay [29] was determined as 740 nM; in assay [32] it was 79 nM; in assay [33] it was 350 nM; in assay [34] it was 1100 nM; in assay [35] it was 49 nM; in assay [36] it was 730 nM. The outcome in assay [6], in [20], in [27], in [30] and in assay [31] was Active. In addition, the EC50 in assay [4] worked out at 290 nM.

Turning to `O=C(/C=C/c1ccc(C(=O)c2cc3ccccc3o2)cc1)NO`, the half-maximal inhibitory concentration (IC50) in assay [1] came to 520 nM; in assay [2] it was 2600 nM; in assay [3], 450 nM. In assay [4], the EC50 came out at 1100 nM.

Turning to `O=C(/C=C/c1ccc(C(=O)c2cc3ccccc3n2S(=O)(=O)c2ccccc2)cc1)NO`, the values for the IC50 in assay [1], in assay [2] and in assay [3] were 690 nM, 5420 nM and 270 nM, respectively. Further, the EC50 in assay [4] amounted to 5700 nM.

With `O=C(/C=C/c1ccc2[nH]c(C(=O)c3ccccc3)cc2c1)NO`, the figures for the IC50 in assay [1], in assay [2] and in assay [3] were 250 nM, 3970 nM and 340 nM, respectively. Besides, in assay [4], the EC50 stood at 3770 nM.

As for `COc1cccc(C(=O)c2cc3cc(/C=C/C(=O)NO)ccc3n2S(=O)(=O)c2ccccc2)c1`, the IC50 in assay [1] worked out at 230 nM; in [2], 3340 nM; in assay [3], 120 nM. In [4], the EC50 came out at 2780 nM.

For `O=C(/C=C/c1cccc(C(=O)c2cc3ccccc3[nH]2)c1)NO`, the IC50 in assay [5] amounted to 620 nM; in assay [1], 31 nM; in assay [7], 1900 nM; in assay [8], 32 nM; in assay [9] it was 170 nM; in [10] it was 530 nM. Also, the IC50 in [11] turned out to be 330 nM; in assay [12], 260 nM; in [2], 850 nM; in assay [13] it was 550 nM; in [14], 250 nM; in [15], 970 nM. The IC50 in assay [16] was found to be 750 nM; in assay [17], 1050 nM; in assay [3] it was 39 nM; in assay [18], 3900 nM; in assay [19], 310 nM; in assay [21], 770 nM. Moreover, the IC50 in assay [22] was found to be 200 nM; in [23], 360 nM; in assay [24], 600 nM; in [25] it was 1000 nM; in [26], 2570 nM; in assay [28], 210 nM. Besides, the IC50 stood at 900 nM in [29]; 50 nM in assay [32]; 340 nM in assay [33]; 1000 nM in assay [34]; 73 nM in assay [35]; 900 nM in assay [36]. For the same compound, the outcome in [6], in [20], in assay [27], in assay [30] and in [31] was Active. Also, the EC50 in [4] was found to be 1300 nM.

In the case of `O=C(CCCCCCC(=O)Nc1ccccc1)NO` [VORINOSTAT], the values for the IC50 in [25], in assay [29] and in assay [36] were 2300 nM, 2200 nM and 2200 nM, respectively.

As to `O=C(/C=C/c1ccc(C(=O)c2cc3ccccc3[nH]2)cc1)NO`, the figures for the IC50 in [1], in assay [2] and in assay [3] were 410 nM, 4750 nM and 310 nM, respectively. For the same compound, the EC50 in assay [4] turned out to be 2970 nM.
